Test results as given in PMC5743427, “Inhibition of PIP4Kγ ameliorates the pathological effects of mutant huntingtin protein” (eLife, 2017).

Assays:
PIP4Kγ = target: T1, PIP4Kγ (Homo sapiens, UniProt Q8TBX8); experiment: DiscoverX KINOMEscan competition binding Kd; also […] lipid kinase assay with purified full-length enzyme (IC50 […])
T1 construct: gene PIP4K2C; KINOMEscan construct for Kd; full length isolated PIP4Kγ for the enzyme assay
T1 sequence (Q8TBX8 2-421): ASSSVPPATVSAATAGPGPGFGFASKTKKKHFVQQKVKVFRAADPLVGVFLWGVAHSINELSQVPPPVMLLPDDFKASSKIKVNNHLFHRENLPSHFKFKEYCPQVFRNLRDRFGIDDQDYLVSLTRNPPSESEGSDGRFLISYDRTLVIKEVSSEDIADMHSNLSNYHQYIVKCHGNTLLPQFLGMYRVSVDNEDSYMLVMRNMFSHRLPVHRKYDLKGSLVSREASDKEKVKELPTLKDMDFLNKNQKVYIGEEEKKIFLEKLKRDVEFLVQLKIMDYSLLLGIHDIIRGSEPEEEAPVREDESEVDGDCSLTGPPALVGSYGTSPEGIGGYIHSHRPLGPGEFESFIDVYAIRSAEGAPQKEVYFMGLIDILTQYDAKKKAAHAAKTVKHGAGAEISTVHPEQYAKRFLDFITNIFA

PIP4Kalpha = target: T2, PIP4Kalpha (Homo sapiens, UniProt P48426); experiment: […] lipid kinase assay (PI5P phosphorylation) with purified recombinant enzyme; weak inhibition; assay type: biochemical
T2 construct: gene PIP4K2A
T2 sequence (P48426 2-406): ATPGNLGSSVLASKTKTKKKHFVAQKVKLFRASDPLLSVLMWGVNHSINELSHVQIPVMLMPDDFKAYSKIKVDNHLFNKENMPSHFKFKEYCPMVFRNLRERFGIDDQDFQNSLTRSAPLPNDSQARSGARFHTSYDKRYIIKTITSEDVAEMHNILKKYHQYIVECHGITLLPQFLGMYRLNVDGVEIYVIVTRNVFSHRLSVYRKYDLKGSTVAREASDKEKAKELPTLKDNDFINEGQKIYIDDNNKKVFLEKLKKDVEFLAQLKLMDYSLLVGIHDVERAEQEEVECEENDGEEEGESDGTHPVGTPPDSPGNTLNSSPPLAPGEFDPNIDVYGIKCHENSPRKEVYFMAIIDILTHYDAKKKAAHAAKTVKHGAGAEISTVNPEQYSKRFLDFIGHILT

PIP4K2C = target: T3, PIP4K2C (Homo sapiens, UniProt Q8TBX8); experiment: KINOMEscan competition binding, single dose […]; details: 10 µM
T3 sequence (Q8TBX8 2-421): T1 sequence (Q8TBX8 2-421)

| Structure (SMILES) | Kd (PIP4Kγ) [µM] | IC50 (PIP4Kalpha) [µM] | ML168 (PIP4K2C) |
| --- | --- | --- | --- |
| Cn1nnnc1Sc1ncnc2scc(-c3cccc(S(C)(=O)=O)c3)c12 [NCT-504, 4-((1-methyl-1H-tetrazol-5-yl)thio)−5-(3-(methylsulfonyl)phenyl)thieno[2,3-d]pyrimidine] | 0.354 | 50 to 100 |  |
| Cn1nnnc1Sc1ncnc2scc(-c3ccccc3)c12 [ML168] |  |  | 23 |
